In test [1] the test system is HL-60. Put plainly: Prodifferentiating activity of compound on human leukemia HL-60 cells was determined. Format: functional.
The test system of test [2] is MCF7. Put plainly: Antiproliferative activity on human breast cancer MCF-7 cells was determined. It counts as functional.
For test [3], the target named is T1, Vitamin D3 receptor (Sus scrofa) (UniProt A3RGC1).
T1 sequence (whole entry): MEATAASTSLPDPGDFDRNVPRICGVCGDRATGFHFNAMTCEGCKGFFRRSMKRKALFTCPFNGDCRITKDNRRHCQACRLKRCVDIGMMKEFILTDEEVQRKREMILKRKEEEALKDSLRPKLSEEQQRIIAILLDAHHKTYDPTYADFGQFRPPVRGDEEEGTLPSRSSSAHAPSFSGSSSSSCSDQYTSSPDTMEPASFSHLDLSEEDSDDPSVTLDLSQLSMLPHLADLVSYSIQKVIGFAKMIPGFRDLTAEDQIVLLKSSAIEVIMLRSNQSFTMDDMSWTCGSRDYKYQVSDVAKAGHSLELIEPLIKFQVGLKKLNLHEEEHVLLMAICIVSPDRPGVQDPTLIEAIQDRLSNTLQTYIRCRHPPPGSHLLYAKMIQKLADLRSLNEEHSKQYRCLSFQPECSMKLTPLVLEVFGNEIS
Put plainly: Binding affinity for pig nuclear vitamin D receptor.

Test [4] is filed under the species Mus musculus. Put plainly: Effect of compound on Ca level in mice blood serum was determined. It counts as functional.
For test [5], the target named is T2, Vitamin D3 receptor (Homo sapiens) (UniProt P11473).
T2 sequence (whole entry): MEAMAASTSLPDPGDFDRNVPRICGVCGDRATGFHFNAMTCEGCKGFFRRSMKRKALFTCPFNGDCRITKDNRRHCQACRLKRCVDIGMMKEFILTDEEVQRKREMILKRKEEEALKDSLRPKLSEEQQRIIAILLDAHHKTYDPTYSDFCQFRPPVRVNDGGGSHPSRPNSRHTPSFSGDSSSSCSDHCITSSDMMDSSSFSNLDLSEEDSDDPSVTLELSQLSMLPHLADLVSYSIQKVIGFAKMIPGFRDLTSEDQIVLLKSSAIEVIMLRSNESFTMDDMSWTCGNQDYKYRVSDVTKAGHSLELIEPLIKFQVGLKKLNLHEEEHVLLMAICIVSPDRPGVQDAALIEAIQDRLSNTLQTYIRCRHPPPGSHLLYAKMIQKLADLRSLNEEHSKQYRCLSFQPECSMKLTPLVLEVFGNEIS
Put plainly: Antiproliferative activity in human breast cancer MCF-7 cells relative to 1-alpha,25(OH)2D3. It counts as functional, cell-based. The following applies: MCF7.

Test [6] concerns the target T1, Vitamin D3 receptor (Sus scrofa). Put plainly: Binding affinity for pig nuclear vitamin D receptor relative to 1-alpha,25(OH)2D3.
The target in test [7] is T2, Vitamin D3 receptor (Homo sapiens). Put plainly: Differentiation activity in human leukemia HL-60 cells relative to 1-alpha,25(OH)2D3. It counts as functional, cell-based.
The target in test [8] is T3, Vitamin D3 receptor (Mus musculus) (UniProt P48281).
T3 sequence (whole entry): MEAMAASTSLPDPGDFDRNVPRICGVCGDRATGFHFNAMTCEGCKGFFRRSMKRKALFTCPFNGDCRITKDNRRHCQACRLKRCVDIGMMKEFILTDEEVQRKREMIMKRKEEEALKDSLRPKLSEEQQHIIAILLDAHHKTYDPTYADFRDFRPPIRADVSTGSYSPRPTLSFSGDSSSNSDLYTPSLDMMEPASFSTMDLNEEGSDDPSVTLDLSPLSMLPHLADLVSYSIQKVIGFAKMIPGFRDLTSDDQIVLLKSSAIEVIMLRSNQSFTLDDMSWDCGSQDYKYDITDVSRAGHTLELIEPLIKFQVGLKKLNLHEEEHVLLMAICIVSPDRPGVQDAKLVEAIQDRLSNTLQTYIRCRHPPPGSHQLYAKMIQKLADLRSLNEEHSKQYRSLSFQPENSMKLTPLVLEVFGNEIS
Nature of the test: Effect on Ca level in mouse serum relative to 1-alpha,25(OH)2D3 treatment. It counts as functional, in vivo.

For `C=C1/C(=C\C=C2/CCC[C@]3(C)[C@@H]([C@H](C)CCCC(C)(C)O)CC[C@@H]23)C[C@@H](O)C[C@@H]1O` [CALCITRIOL], the Activity in test [1], in test [2], in test [3] and in test [4] was 100 in each case.

For `C=C1/C(=C/C=C2/CCC[C@]3(CC[C@H](OCCC(C)(C)O)CC3)C2)C[C@@H](O)C[C@@H]1O`, the Activity in test [5] is 0; in test [6], below 0.1; in test [7] it was below 1; in test [8] it was below 0.25.

On to `CC(C)(O)CCO[C@H]1CC[C@@]2(CCC/C(=C\C=C3C[C@@H](O)C[C@H](O)C3)C2)CC1`, for which the Activity in test [5] was 60; in test [6] it was below 0.1; in test [7] it was 8; in test [8] it was below 0.25.

On to `CC(C)(O)CCO[C@H]1CC[C@]2(CCC/C(=C\C=C3C[C@@H](O)C[C@H](O)C3)C2)CC1`, for which the Activity in test [5] is 7; in test [6], below 0.1; in test [7], 6; in test [8], below 0.25.

`C=C1/C(=C\C=C2/CCC[C@]3(CC[C@@H](OCCC(C)(C)O)CC3)C2)C[C@@H](O)C[C@@H]1O`: the figures for the Activity in test [5], in test [6] and in test [8] were 10, 0.5 and below 0.25, respectively.

(Values after ChEMBL document CHEMBL1137110, “Synthesis and biological activity of 22-oxa CD-ring modified analogues of 1alpha,25-dihydroxyvitamin D3: spiro[5.5]undecane CF-ring analogues” (2004).)
